# Assay results reported in ChEMBL document CHEMBL1201862, “PubChem BioAssay data set” (2004).
#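 In this assay, cells in 96-well plates receive the compound at five concentrations for 48 hours. Endpoints are linearly interpolated between the surrounding concentrations. Here, GI50 denotes the concentration required for 50% inhibition of growth.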 The source made the active and inactive calls. Rule as the data show it: active = GI50 up to about 1.1 µM and inactive = higher.
# Tests used:
# Assay in all cases: NCI tumour cell line growth inhibition, 48 h
# 786-0 = test system: 786-0
# A498 = test system: A498
# A549 = test system: A549
# ACHN = test system: ACHN
# BT-549 = test system: BT-549
# CAKI-1 = test system: CAKI-1
# CCRF-CEM = test system: CCRF-CEM
# COLO 205 = test system: COLO 205
# DU-145 = test system: DU-145
# EKVX = test system: EKVX
# HCC 2998 = test system: HCC 2998
# HCT-116 = test system: HCT-116
# HCT-15 = test system: HCT-15
# HL-60 = test system: HL-60
# HOP-62 = test system: HOP-62
# HOP-92 = test system: HOP-92
# HT-29 = test system: HT-29
# Hs-578T = test system: Hs-578T
# IGROV-1 = test system: IGROV-1
# KM12 = test system: KM12
# LOX IMVI = test system: LOX IMVI
# M14 = test system: M14
# MCF7 = test system: MCF7
# MDA-MB-231 = test system: MDA-MB-231
# MDA-MB-435 = test system: MDA-MB-435
# MDA-N = test system: MDA-N
# MOLT-4 = test system: MOLT-4
# Malme-3M = test system: Malme-3M
# NCI-H226 = test system: NCI-H226
# NCI-H23 = test system: NCI-H23
# NCI-H460 = test system: NCI-H460
# NCI-H522 = test system: NCI-H522
# NCI/ADR-RES = test system: NCI/ADR-RES
# OVCAR-3 = test system: OVCAR-3
# OVCAR-4 = test system: OVCAR-4
# OVCAR-5 = test system: OVCAR-5
# OVCAR-8 = test system: OVCAR-8
# PC-3 = test system: PC-3
# RPMI-8226 = test system: RPMI-8226
# SF-268 = test system: SF-268
# SF-295 = test system: SF-295
# SF-539 = test system: SF-539
# SK-MEL-28 = test system: SK-MEL-28
# SK-MEL-2 = test system: SK-MEL-2
# SK-MEL-5 = test system: SK-MEL-5
# SK-OV-3 = test system: SK-OV-3
# SN12C = test system: SN12C
# SNB-19 = test system: SNB-19
# SNB-75 = test system: SNB-75
# SR = test system: SR
# SW-620 = test system: SW-620
# T47D = test system: T47D
# TK-10 = test system: TK-10
# U-251 = test system: U-251
# UACC-257 = test system: UACC-257
# UACC-62 = test system: UACC-62
# UO-31 = test system: UO-31
# K562 = test system: K562
structure (smiles),measurement,setting,value
Cc1cnc2c(c1)C(=O)N(c1ccc([N+](=O)[O-])cc1)S2(=O)=O,GI50,786-0,> 100 µM (inactive)
same,GI50,A498,68.4 µM (inactive)
same,GI50,A549,95.9 µM (inactive)
same,GI50,ACHN,> 100 µM (inactive)
same,GI50,BT-549,36.1 µM (inactive)
same,GI50,CAKI-1,> 100 µM (inactive)
same,GI50,CCRF-CEM,82.4 µM (inactive)
same,GI50,COLO 205,> 100 µM (inactive)
same,GI50,DU-145,> 100 µM (inactive)
same,GI50,EKVX,> 100 µM (inactive)
same,GI50,HCC 2998,> 100 µM (inactive)
same,GI50,HCT-116,> 100 µM (inactive)
same,GI50,HCT-15,66.1 µM
same,GI50,HL-60,28.2 µM (inactive)
same,GI50,HOP-62,> 100 µM (inactive)
same,GI50,HOP-92,> 100 µM (inactive)
same,GI50,HT-29,> 100 µM (inactive)
same,GI50,Hs-578T,38.1 µM (inactive)
same,GI50,IGROV-1,30.3 µM (inactive)
same,GI50,KM12,> 100 µM (inactive)
same,GI50,LOX IMVI,73.5 µM (inactive)
same,GI50,M14,> 100 µM (inactive)
same,GI50,MCF7,> 100 µM (inactive)
same,GI50,MDA-MB-231,> 100 µM (inactive)
same,GI50,MDA-MB-435,70.5 µM (inactive)
same,GI50,MDA-N,93.5 µM (inactive)
same,GI50,MOLT-4,> 100 µM (inactive)
same,GI50,Malme-3M,22.4 µM (inactive)
same,GI50,NCI-H226,19.9 µM (inactive)
same,GI50,NCI-H23,> 100 µM (inactive)
same,GI50,NCI-H460,> 100 µM (inactive)
same,GI50,NCI-H522,25.1 µM (inactive)
same,GI50,NCI/ADR-RES,74.3 µM (inactive)
same,GI50,OVCAR-3,> 100 µM (inactive)
same,GI50,OVCAR-4,78 µM (inactive)
same,GI50,OVCAR-5,> 100 µM (inactive)
same,GI50,OVCAR-8,> 100 µM (inactive)
same,GI50,PC-3,67.3 µM (inactive)
same,GI50,RPMI-8226,37.7 µM (inactive)
same,GI50,SF-268,77.8 µM (inactive)
same,GI50,SF-295,82.8 µM (inactive)
same,GI50,SF-539,64.6 µM (inactive)
same,GI50,SK-MEL-28,74 µM (inactive)
same,GI50,SK-MEL-2,5.47 µM (inactive)
same,GI50,SK-MEL-5,71.3 µM (inactive)
same,GI50,SK-OV-3,> 100 µM (inactive)
same,GI50,SN12C,> 100 µM (inactive)
same,GI50,SNB-19,56.2 µM (inactive)
same,GI50,SNB-75,61.1 µM (inactive)
same,GI50,SR,25.7 µM (inactive)
same,GI50,SW-620,58.7 µM (inactive)
same,GI50,T47D,> 100 µM (inactive)
same,GI50,TK-10,> 100 µM (inactive)
same,GI50,U-251,67.1 µM (inactive)
same,GI50,UACC-257,> 100 µM (inactive)
same,GI50,UACC-62,75.5 µM (inactive)
same,GI50,UO-31,> 100 µM (inactive)
COC(=O)c1cc2c(o1)Sc1ccccc1NC2=O,GI50,786-0,87.1 µM (inactive)
same,GI50,A498,> 100 µM (inactive)
same,GI50,A549,> 100 µM (inactive)
same,GI50,ACHN,27.1 µM (inactive)
same,GI50,BT-549,> 100 µM (inactive)
same,GI50,CAKI-1,> 100 µM (inactive)
same,GI50,CCRF-CEM,> 100 µM (inactive)
same,GI50,COLO 205,> 100 µM (inactive)
same,GI50,DU-145,> 100 µM (inactive)
same,GI50,HCC 2998,> 100 µM (inactive)
same,GI50,HCT-116,> 100 µM (inactive)
same,GI50,HCT-15,> 100 µM
same,GI50,HL-60,> 100 µM (inactive)
same,GI50,HOP-62,52.1 µM (inactive)
same,GI50,HOP-92,> 100 µM (inactive)
same,GI50,HT-29,> 100 µM (inactive)
same,GI50,Hs-578T,27.7 µM (inactive)
same,GI50,IGROV-1,> 100 µM (inactive)
same,GI50,K562,> 100 µM (inactive)
same,GI50,KM12,> 100 µM (inactive)
same,GI50,LOX IMVI,> 100 µM (inactive)
same,GI50,M14,> 100 µM (inactive)
same,GI50,MCF7,> 100 µM (inactive)
same,GI50,MDA-MB-231,> 100 µM (inactive)
same,GI50,MDA-MB-435,> 100 µM (inactive)
same,GI50,MDA-N,> 100 µM (inactive)
same,GI50,MOLT-4,> 100 µM (inactive)
same,GI50,NCI-H226,> 100 µM (inactive)
same,GI50,NCI-H23,> 100 µM (inactive)
same,GI50,NCI-H460,> 100 µM (inactive)
same,GI50,NCI-H522,2.75 µM (inactive)
same,GI50,NCI/ADR-RES,> 100 µM (inactive)
same,GI50,OVCAR-3,> 100 µM (inactive)
same,GI50,OVCAR-4,> 100 µM (inactive)
same,GI50,OVCAR-5,> 100 µM (inactive)
same,GI50,OVCAR-8,68.5 µM (inactive)
same,GI50,PC-3,> 100 µM (inactive)
same,GI50,RPMI-8226,> 100 µM (inactive)
same,GI50,SF-268,31.8 µM (inactive)
same,GI50,SF-295,> 100 µM (inactive)
same,GI50,SF-539,29 µM (inactive)
same,GI50,SK-MEL-28,> 100 µM (inactive)
same,GI50,SK-MEL-2,> 100 µM (inactive)
same,GI50,SK-MEL-5,> 100 µM (inactive)
same,GI50,SK-OV-3,> 100 µM (inactive)
same,GI50,SN12C,> 100 µM (inactive)
same,GI50,SNB-19,35.9 µM (inactive)
same,GI50,SNB-75,24.8 µM (inactive)
same,GI50,SR,> 100 µM (inactive)
same,GI50,SW-620,> 100 µM (inactive)
same,GI50,T47D,> 100 µM (inactive)
same,GI50,TK-10,> 100 µM (inactive)
same,GI50,U-251,83.2 µM (inactive)
same,GI50,UACC-257,> 100 µM (inactive)
same,GI50,UACC-62,> 100 µM (inactive)
CC1(C23CC4CC(CC(C4)C2)C3)n2c(=O)n(-c3ccccc3)c(=O)n2C1(C)C12CC3CC(CC(C3)C1)C2 (stereo not drawn),GI50,A498,> 100 µM (inactive)
same,GI50,A549,> 100 µM (inactive)
same,GI50,ACHN,> 100 µM (inactive)
same,GI50,BT-549,> 100 µM (inactive)
same,GI50,CAKI-1,> 100 µM (inactive)
same,GI50,CCRF-CEM,> 100 µM (inactive)
same,GI50,COLO 205,> 100 µM (inactive)
same,GI50,DU-145,> 100 µM (inactive)
same,GI50,EKVX,91.2 µM (inactive)
same,GI50,HCT-15,> 100 µM
same,GI50,HL-60,> 100 µM (inactive)
same,GI50,HOP-62,> 100 µM (inactive)
same,GI50,HOP-92,> 100 µM (inactive)
same,GI50,HT-29,> 100 µM (inactive)
same,GI50,Hs-578T,18.8 µM (inactive)
same,GI50,IGROV-1,> 100 µM (inactive)
same,GI50,K562,> 100 µM (inactive)
same,GI50,KM12,> 100 µM (inactive)
same,GI50,M14,> 100 µM (inactive)
same,GI50,MCF7,> 100 µM (inactive)
same,GI50,MDA-MB-231,> 100 µM (inactive)
same,GI50,MDA-MB-435,> 100 µM (inactive)
same,GI50,MDA-N,> 100 µM (inactive)
same,GI50,MOLT-4,> 100 µM (inactive)
same,GI50,NCI-H226,> 100 µM (inactive)
same,GI50,NCI-H23,> 100 µM (inactive)
same,GI50,NCI-H460,> 100 µM (inactive)
same,GI50,NCI/ADR-RES,> 100 µM (inactive)
same,GI50,OVCAR-3,> 100 µM (inactive)
same,GI50,OVCAR-5,> 100 µM (inactive)
same,GI50,OVCAR-8,> 100 µM (inactive)
same,GI50,PC-3,> 100 µM (inactive)
same,GI50,RPMI-8226,89.7 µM (inactive)
same,GI50,SF-268,> 100 µM (inactive)
same,GI50,SF-295,> 100 µM (inactive)
same,GI50,SF-539,> 100 µM (inactive)
same,GI50,SK-MEL-28,> 100 µM (inactive)
same,GI50,SK-MEL-2,> 100 µM (inactive)
same,GI50,SK-MEL-5,> 100 µM (inactive)
same,GI50,SK-OV-3,> 100 µM (inactive)
same,GI50,SN12C,> 100 µM (inactive)
same,GI50,SNB-19,> 100 µM (inactive)
same,GI50,SNB-75,74.1 µM (inactive)
same,GI50,SR,> 100 µM (inactive)
same,GI50,SW-620,> 100 µM (inactive)
same,GI50,T47D,> 100 µM (inactive)
same,GI50,TK-10,> 100 µM (inactive)
same,GI50,U-251,> 100 µM (inactive)
same,GI50,UACC-257,> 100 µM (inactive)
same,GI50,UACC-62,> 100 µM (inactive)
same,GI50,UO-31,> 100 µM (inactive)
